According to ChEMBL document CHEMBL4477208, “Discovery and Rational Design of Pteridin-7(8H)-one-Based Inhibitors Targeting FMS-like Tyrosine Kinase 3 (FLT3) and Its Mutants” (J Med Chem, 2016):
Active and inactive are the calls of the source. No cut-off for these calls is given here.

What was measured:
[1] = target: T1, Receptor-type tyrosine-protein kinase FLT3 (Homo sapiens, UniProt P36888)
T1 sequence (P36888 whole entry): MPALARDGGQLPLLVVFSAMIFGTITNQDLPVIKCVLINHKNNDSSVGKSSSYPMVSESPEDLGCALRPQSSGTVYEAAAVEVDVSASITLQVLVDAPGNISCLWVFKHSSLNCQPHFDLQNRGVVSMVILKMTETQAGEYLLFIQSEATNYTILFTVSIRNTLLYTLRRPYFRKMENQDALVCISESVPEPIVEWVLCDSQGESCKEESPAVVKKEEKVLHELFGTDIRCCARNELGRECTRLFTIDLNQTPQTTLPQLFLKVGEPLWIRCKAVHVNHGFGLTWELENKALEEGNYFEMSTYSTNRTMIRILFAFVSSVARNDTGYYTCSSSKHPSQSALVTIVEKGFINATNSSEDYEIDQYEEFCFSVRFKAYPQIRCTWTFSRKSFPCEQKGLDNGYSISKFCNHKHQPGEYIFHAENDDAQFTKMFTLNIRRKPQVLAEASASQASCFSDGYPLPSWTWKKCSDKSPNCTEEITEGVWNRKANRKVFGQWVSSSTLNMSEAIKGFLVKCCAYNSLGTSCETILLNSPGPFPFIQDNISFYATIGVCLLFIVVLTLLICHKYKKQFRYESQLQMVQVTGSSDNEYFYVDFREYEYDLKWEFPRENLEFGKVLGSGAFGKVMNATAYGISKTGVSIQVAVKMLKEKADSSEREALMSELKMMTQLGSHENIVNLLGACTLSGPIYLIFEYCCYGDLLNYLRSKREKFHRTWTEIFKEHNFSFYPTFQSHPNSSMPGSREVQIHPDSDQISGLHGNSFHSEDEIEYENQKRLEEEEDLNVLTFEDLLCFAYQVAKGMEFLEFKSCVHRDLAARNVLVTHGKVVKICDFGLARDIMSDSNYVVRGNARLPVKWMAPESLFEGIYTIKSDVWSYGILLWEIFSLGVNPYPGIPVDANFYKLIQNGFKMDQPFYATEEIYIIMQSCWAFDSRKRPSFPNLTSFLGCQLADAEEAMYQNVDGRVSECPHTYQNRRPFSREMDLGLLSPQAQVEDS
Description: Inhibition of human N-terminal GST-tagged FLT3 (564 to 993 residues) expressed in baculovirus expression system using peptide FAM-P2 as substrate incubated for 10 mins followed by substrate addition by mobility shift assay

MV4-11 [2] = assay: cells; conditions: Homo sapiens, MV4-11, 72 h
Description: Antiproliferative activity against human MV4-11 cells harboring FLT3-ITD mutant after 72 hrs by MTT assay

K562 = assay: cells; conditions: Homo sapiens, K562, 72 h
Description: Antiproliferative activity against FLT3-deficient human K562 cells after 72 hrs by MTT assay

WI-38 = assay: cells; conditions: Homo sapiens, WI-38, 72 h
Description: Antiproliferative activity against human WI38 cells after 72 hrs by SRB assay

[3] = target: Receptor-type tyrosine-protein kinase FLT3 (Homo sapiens) (UniProt P36888); assay: Inhibition of FLT3 (unknown origin) at 10 uM
[4] = target: Receptor-type tyrosine-protein kinase FLT3 (Homo sapiens) (UniProt P36888); assay: Inhibition of FLT3 (unknown origin) at 1 uM
MV4-11 [5] = assay: Induction of apoptosis in human MV4-11 cells at 1000 nM after 48 hrs by annexin V/propidium iodide staining based FACS analysis; type: functional, cell-based
MV4-11 [6] = assay: Cell cycle arrest in human MV4-11 cells at 1000 nM after 48 hrs by PI/RNase staining based FACS analysis; type: functional

Structure (SMILES)	IC50 [1]	IC50 (MV4-11 [2])	IC50 (K562)	inhibition [3]	inhibition [4]	IC50 (WI-38)	Activity (MV4-11 [5])	Activity (MV4-11 [6])
C=CC(=O)Nc1ccc(-n2c(=O)cnc3cnc(Nc4ccc(N5CCN(C)CC5)cc4)nc32)cc1	0.047 µM	0.835 µM	> 10 µM	–	–	> 10 µM	–	–
CN1CCN(c2ccc(Nc3ncc4ncc(=O)n(-c5ccc(N)cc5)c4n3)cc2F)CC1	–	1.42 µM	> 10 µM	–	–	> 10 µM	–	–
COc1ccc(Nc2ncc3ncc(=O)n(-c4ccc(NC(=O)/C=C/CN(C)C)cc4)c3n2)cc1	0.184 µM	2.17 µM	> 10 µM	–	–	> 10 µM	–	–
CN1CCN(c2ccc(Nc3ncc4ncc(=O)n(-c5ccc(N6CCNCC6)cc5)c4n3)cc2)CC1	–	0.168 µM	> 10 µM	–	–	> 10 µM	–	–
COc1ccc(Nc2ncc3ncc(=O)n(-c4ccc(N)cc4)c3n2)cc1	0.029 µM	6.89 µM	> 10 µM	–	–	> 10 µM	–	–
C=CC(=O)Nc1ccc(-n2c(=O)cnc3cnc(Nc4ccc(N5CCOCC5)cc4)nc32)cc1	0.173 µM	3.49 µM	> 10 µM	–	–	> 10 µM	–	–
COc1ccc(Nc2ncc3ncc(=O)n(-c4cccc(N)c4)c3n2)cc1	0.034 µM	3.49 µM	> 10 µM	–	–	> 10 µM	–	–
COc1ccc(Nc2ncc3ncc(=O)n(-c4ccc(N)cc4)c3n2)cc1Cl	–	1.95 µM	> 10 µM	–	–	> 10 µM	–	–
C=CC(=O)Nc1ccc(-n2c(=O)cnc3cnc(Nc4ccc(N5CCN(C)CC5)cc4OC)nc32)cc1	0.153 µM	0.814 µM	> 10 µM	–	–	> 10 µM	–	–
CN1CCN(c2ccc(Nc3ncc4ncc(=O)n(-c5ccc(N)cc5)c4n3)cc2Cl)CC1	–	0.098 µM	> 10 µM	–	–	3.49 µM	–	–
COc1cc2c(N3CCN(C(=O)Nc4ccc(OC(C)C)cc4)CC3)ncnc2cc1OCCCN1CCCCC1 [TANDUTINIB]	–	0.302 µM	> 10 µM	–	–	> 10 µM	–	–
COc1ccc(Nc2ncc3ncc(=O)n(-c4ccc(NS(C)(=O)=O)cc4)c3n2)cc1	–	2.94 µM	> 10 µM	–	–	> 10 µM	–	–
CN1CCN(c2ccc(Nc3ncc4ncc(=O)n(-c5ccc(CN)cc5)c4n3)cc2)CC1	–	0.326 µM	9.96 µM	–	–	> 10 µM	–	–
CN1CCN(c2ccc(Nc3ncc4ncc(=O)n(-c5ccc(N)cc5)c4n3)cc2)CC1	–	0.297 µM	> 10 µM	–	–	> 10 µM	Active	Active
CN1CCN(c2ccc(Nc3ncc4ncc(=O)n(-c5cccc(N)c5)c4n3)cc2)CC1	–	0.383 µM	> 10 µM	–	–	> 10 µM	–	–
COc1ccc(Nc2ncc3ncc(=O)n(-c4ccc(N)cc4)c3n2)c(C)c1	–	6.04 µM	> 10 µM	–	–	> 10 µM	–	–
C=CC(=O)Nc1cccc(-n2c(=O)cnc3cnc(Nc4ccc(N5CCN(C)CC5)cc4OC)nc32)c1	1.32 µM	2.89 µM	> 10 µM	–	–	8.24 µM	–	–
COc1cc(Nc2ncc3ncc(=O)n(-c4ccc(N)cc4)c3n2)ccc1N1CCN(C)CC1	–	0.093 µM	> 10 µM	–	–	> 10 µM	–	–
CN1CCN(c2ccc(Nc3ncc4ncc(=O)n(-c5ccc(NS(C)(=O)=O)cc5)c4n3)cc2)CC1	–	1.15 µM	> 10 µM	–	–	> 10 µM	–	–
CC(=O)Nc1ccc(-n2c(=O)cnc3cnc(Nc4ccc(N5CCN(C)CC5)cc4)nc32)cc1	–	0.415 µM	> 10 µM	–	–	> 10 µM	–	–

More lines, main results first:

IC50 [1]	IC50 (MV4-11 [2])	IC50 (K562)	inhibition [3]	inhibition [4]	Structure (SMILES)	IC50 (WI-38)	Activity (MV4-11 [5])	Activity (MV4-11 [6])
0.108 µM	3.81 µM	> 10 µM	–	–	C=CC(=O)Nc1ccc(-n2c(=O)cnc3cnc(Nc4ccc(OC)cc4)nc32)cc1	> 10 µM	–	–
–	> 10 µM	> 10 µM	–	–	C=CC(=O)Nc1cccc(-n2c(=O)cnc3cnc(Nc4ccc(CC(N)=O)cc4)nc32)c1	> 10 µM	–	–
0.312 µM	0.792 µM	> 10 µM	99%	82%	C=CC(=O)Nc1cccc(-n2c(=O)cnc3cnc(Nc4ccc(N5CCN(C)CC5)cc4)nc32)c1	> 10 µM	–	–
0.165 µM	> 10 µM	> 10 µM	–	–	C=CC(=O)Nc1ccc(-n2c(=O)cnc3cnc(Nc4ccccc4)nc32)cc1	> 10 µM	–	–
–	3.88 µM	> 10 µM	–	–	COc1ccc(Nc2ncc3ncc(=O)n(-c4ccc(NC(C)=O)cc4)c3n2)cc1	> 10 µM	–	–
1.06 µM	5.56 µM	> 10 µM	–	–	C=CC(=O)Nc1cccc(-n2c(=O)cnc3cnc(Nc4ccc(N(CC)CC)cc4)nc32)c1	> 10 µM	–	–
1.75 µM	> 10 µM	> 10 µM	–	–	C=CC(=O)Nc1cccc(-n2c(=O)cnc3cnc(Nc4ccc(N5CCCCC5)cc4)nc32)c1	> 10 µM	–	–
1.87 µM	2.61 µM	> 10 µM	–	–	C=CC(=O)Nc1cccc(-n2c(=O)cnc3cnc(Nc4ccc(OC)cc4)nc32)c1	8.71 µM	–	–
1.53 µM	> 10 µM	> 10 µM	–	–	C=CC(=O)Nc1cccc(-n2c(=O)cnc3cnc(Nc4ccc(N5CCCC5)cc4)nc32)c1	> 10 µM	–	–
–	2.72 µM	> 10 µM	–	–	COc1ccc(Nc2ncc3ncc(=O)n(-c4cccc(NC(=O)/C=C/CN(C)C)c4)c3n2)cc1	> 10 µM	–	–
0.384 µM	> 10 µM	> 10 µM	–	–	C=CC(=O)Nc1ccc(-n2c(=O)cnc3cnc(Nc4ccc(Cl)cc4)nc32)cc1	> 10 µM	–	–
1.14 µM	> 10 µM	> 10 µM	–	–	C=CC(=O)Nc1cccc(-n2c(=O)cnc3cnc(Nc4ccc(N5CCOCC5)cc4)nc32)c1	> 10 µM	–	–
3.59 µM	4.04 µM	> 10 µM	–	–	C=CC(=O)Nc1cccc(-n2c(=O)cnc3cnc(Nc4ccc(Cl)cc4)nc32)c1	> 10 µM	–	–
2.92 µM	5.51 µM	> 10 µM	–	–	C=CC(=O)Nc1cccc(-n2c(=O)cnc3cnc(Nc4ccccc4)nc32)c1	> 10 µM	–	–
5.45 µM	7.38 µM	> 10 µM	–	–	C=CC(=O)Nc1cccc(-n2c(=O)cnc3cnc(Nc4ccc(NC(C)=O)cc4)nc32)c1	> 10 µM	–	–
